Article PMC3353862
Converted amounts (≈) assume the structure as drawn.

Legend:
S. aureus = experiment: Broth microdilution MIC testing; assay type: cell-based, Staphylococcus aureus; settings: for MIC: Staphylococcus aureus, read-out: MIC S. aureus
E. coli tolC mutants = experiment: Broth microdilution MIC testing; assay type: cell-based, Escherichia coli; settings: for MIC: Escherichia coli, read-out: MIC E. coli tolC; for MIC E. coli tolC: E. coli tolC mutants
[1] = test system: bacterial protein synthesis (aminoacylation/translation system); experiment: aminoacylation/translation (A/T) assay; assay type: biochemical; settings: A/T assay, Table 1; read-out: IC50
M. catarrhalis = experiment: Broth microdilution MIC testing; assay type: cell-based, Moraxella catarrhalis; settings: for MIC: Moraxella catarrhalis
S. pneumoniae = experiment: Broth microdilution MIC testing; assay type: cell-based, Streptococcus pneumoniae; settings: for MIC: Streptococcus pneumoniae, read-out: MIC S. pneumo; for MIC S. pneumo: S. pneumoniae
[2] = test system: E. coli modified with PMBN; experiment: Broth microdilution MIC testing; assay type: cell-based, Escherichia coli; settings: for MIC: Escherichia coli, read-out: MIC E. coli +PMBP; for MIC E. coli +PMBP: E. coli modified with PMBN
E. faecalis = experiment: Broth microdilution MIC testing; assay type: cell-based, Enterococcus faecalis; settings: for MIC: Enterococcus faecalis, read-out: MIC E. fae; for MIC E. fae: E. faecalis
H. influenzae = experiment: Broth microdilution MIC testing; assay type: cell-based, Haemophilus influenzae; settings: for MIC: Haemophilus influenzae, read-out: MIC H. flu; for MIC H. flu: H. influenzae

SMILES	MIC (S. aureus) [µg/mL]	MIC (E. coli tolC mutants) [µg/mL]	IC50 [1] [nM]	MIC (M. catarrhalis) [µg/mL]	MIC (S. pneumoniae) [µg/mL]	MIC [2] [µg/mL]	MIC (E. faecalis) [µg/mL]	MIC (H. influenzae) [µg/mL]	MIC S. aureus (S. aureus) [µg/mL]	MIC M. cat (M. catarrhalis) [µg/mL]	MIC S. pneumo (S. pneumoniae) [µg/mL]	MIC E. coli +PMBP [2] [µg/mL]	MIC E. coli tolC (E. coli tolC mutants) [µg/mL]	MIC E. fae (E. faecalis) [µg/mL]	MIC H. flu (H. influenzae) [µg/mL]
Oc1nc(-c2cccnc2)nc2c1CN(Cc1cccc(F)c1)CC2 [Compound 321376]	> 128	> 128	> 300000	–	–	–	–	–	–	–	–	–	–	–	–
Oc1nc(-c2ccncc2)nc2c1CN(Cc1cccc(F)c1)CC2 [Compound 321386]	> 128	> 128	> 300000	> 128	> 128	> 128	> 128	> 128	–	–	–	–	–	–	–
COc1cccc(CN2CCc3nc(-c4ccncc4)nc(O)c3C2)c1 [Compound 321388]	> 128	> 128	> 300000	> 128	> 128	> 128	> 128	> 128	–	–	–	–	–	–	–
Oc1nc(-c2ccccn2)nc2c1CN(Cc1ccc(F)cc1)CC2 [Compound 321521]	128 (≈ 381 µM)	16 (≈ 47.6 µM)	2400	0.5 (≈ 1.49 µM)	16 (≈ 47.6 µM)	64 (≈ 190 µM)	16 (≈ 47.6 µM)	4 (≈ 11.9 µM)	–	–	–	–	–	–	–
Oc1ccccc1CN1CCc2nc(-c3ccccn3)nc(O)c2C1 [Compound 321522]	128 (≈ 383 µM)	32 (≈ 95.7 µM)	2600	1 (≈ 2.99 µM)	16 (≈ 47.8 µM)	64 (≈ 191 µM)	16 (≈ 47.8 µM)	2 (≈ 5.98 µM)	–	–	–	–	–	–	–
Oc1nc(-c2ccccn2)nc2c1CN(Cc1ccccc1)CC2 [Compound 321524]	128 (≈ 402 µM)	16 (≈ 50.3 µM)	2000	1 (≈ 3.14 µM)	16 (≈ 50.3 µM)	64 (≈ 201 µM)	16 (≈ 50.3 µM)	4 (≈ 12.6 µM)	–	–	–	–	–	–	–
COc1ccccc1CN1CCc2nc(-c3ccccn3)nc(O)c2C1 [Compound 321527]	> 128	64 (≈ 184 µM)	1800	2 (≈ 5.74 µM)	32 (≈ 91.8 µM)	> 128	64 (≈ 184 µM)	16 (≈ 45.9 µM)	–	–	–	–	–	–	–
COc1ccc(CN2CCc3nc(-c4ccccn4)nc(O)c3C2)cc1 [Compound 321529]	> 128	32 (≈ 91.8 µM)	2600	2 (≈ 5.74 µM)	32 (≈ 91.8 µM)	128 (≈ 367 µM)	128 (≈ 367 µM)	8 (≈ 23 µM)	–	–	–	–	–	–	–
COc1ccc(OC)c(CN2CCc3nc(-c4ccccn4)[nH]c(=O)c3C2)c1 [Compound 323191]	–	–	> 300000	–	–	–	–	–	> 128	4 (≈ 10.6 µM)	32 (≈ 84.6 µM)	64 (≈ 169 µM)	128 (≈ 338 µM)	128 (≈ 338 µM)	32 (≈ 84.6 µM)
O=c1[nH]c(-c2ccccn2)nc2c1CN(Cc1ccccc1OCc1ccccn1)CC2 [Compound 323192]	–	–	> 300000	–	–	–	–	–	> 128	4 (≈ 9.4 µM)	32 (≈ 75.2 µM)	64 (≈ 150 µM)	128 (≈ 301 µM)	128 (≈ 301 µM)	64 (≈ 150 µM)
C=CCOc1ccccc1CN1CCc2nc(-c3ccccn3)[nH]c(=O)c2C1 [Compound 323194]	–	–	3400	–	–	–	–	–	64 (≈ 171 µM)	1 (≈ 2.67 µM)	8 (≈ 21.4 µM)	16 (≈ 42.7 µM)	16 (≈ 42.7 µM)	64 (≈ 171 µM)	8 (≈ 21.4 µM)
O=c1[nH]c(-c2ccccn2)nc2c1CN(Cc1ccccc1N1CCCC1)CC2 [Compound 323195]	–	–	1500	–	–	–	–	–	64 (≈ 165 µM)	2 (≈ 5.16 µM)	32 (≈ 82.6 µM)	16 (≈ 41.3 µM)	32 (≈ 82.6 µM)	64 (≈ 165 µM)	16 (≈ 41.3 µM)
O=c1[nH]c(-c2ccccn2)nc2c1CN(Cc1cccc(O)c1O)CC2 [Compound 323196]	–	–	1600	–	–	–	–	–	> 128	128 (≈ 365 µM)	> 128	> 128	> 128	32 (≈ 91.3 µM)	> 128
COc1cccc(CN2CCc3nc(-c4ccccn4)[nH]c(=O)c3C2)c1O [Compound 323197]	–	–	4400	–	–	–	–	–	> 128	16 (≈ 43.9 µM)	128 (≈ 351 µM)	> 128	> 128	> 128	32 (≈ 87.8 µM)
O=c1[nH]c(-c2ccccn2)nc2c1CN(Cc1c(F)cccc1F)CC2 [Compound 323198]	–	–	2700	–	–	–	–	–	> 128	1 (≈ 2.82 µM)	16 (≈ 45.2 µM)	64 (≈ 181 µM)	32 (≈ 90.3 µM)	> 128	8 (≈ 22.6 µM)
CCOc1cc2c(cc1CN1CCc3nc(-c4ccccn4)[nH]c(=O)c3C1)OCO2 [Compound 323199]	–	–	1100	–	–	–	–	–	128 (≈ 315 µM)	1 (≈ 2.46 µM)	16 (≈ 39.4 µM)	32 (≈ 78.7 µM)	32 (≈ 78.7 µM)	128 (≈ 315 µM)	16 (≈ 39.4 µM)
COc1ccc(CN2CCc3nc(-c4ccccn4)[nH]c(=O)c3C2)c(C)c1C [Compound 323202]	–	–	4300	–	–	–	–	–	16 (≈ 42.5 µM)	0.25 (≈ 0.664 µM)	4 (≈ 10.6 µM)	32 (≈ 85 µM)	8 (≈ 21.3 µM)	32 (≈ 85 µM)	4 (≈ 10.6 µM)
COc1cc(Cl)cc(CN2CCc3nc(-c4ccccn4)[nH]c(=O)c3C2)c1OC [Compound 323203]	–	–	2000	–	–	–	–	–	16 (≈ 38.8 µM)	1 (≈ 2.42 µM)	4 (≈ 9.69 µM)	16 (≈ 38.8 µM)	8 (≈ 19.4 µM)	64 (≈ 155 µM)	8 (≈ 19.4 µM)
Cc1cc(CN2CCc3nc(-c4ccccn4)[nH]c(=O)c3C2)cc(C)c1O [Compound 323204]	–	–	2100	–	–	–	–	–	> 128	64 (≈ 177 µM)	128 (≈ 353 µM)	> 128	> 128	> 128	32 (≈ 88.3 µM)
COc1cc(CN2CCc3nc(-c4ccccn4)[nH]c(=O)c3C2)cc2c1OCO2 [Compound 323205]	–	–	> 300000	–	–	–	–	–	> 128	4 (≈ 10.2 µM)	32 (≈ 81.5 µM)	64 (≈ 163 µM)	64 (≈ 163 µM)	128 (≈ 326 µM)	16 (≈ 40.8 µM)
CN(C)Cc1cc(CN2CCc3nc(-c4ccccn4)[nH]c(=O)c3C2)ccc1O [Compound 323206]	–	–	> 300000	–	–	–	–	–	> 128	> 128	> 128	> 128	> 128	> 128	> 128
Cc1cc2c(cc1CN1CCc3nc(-c4ccccn4)[nH]c(=O)c3C1)OCO2 [Compound 323207]	–	–	> 300000	–	–	–	–	–	> 128	> 128	> 128	> 128	> 128	> 128	> 128
